Laboratory results: the NIST ThermoML archive (doi:10.1021/acs.jced.5b00654)
“And” between values parts separate entries of the source, which are not always exact repeats. Identical values can stand only once. ± gives the expanded uncertainty stated by the source.

Conditions: Fluid (supercritical or subcritical phases); for viscosity: Vibrating wire viscometry; for mass density: Buoyancy - hydrostatic balance with magnetic suspension - one sinker

CCCC [butane]
Conditions	mass density	viscosity
348.15 K, 63.3 kPa	–	0.008591 ± 0.00084 mPa·s
348.15 K, 337.86 kPa	7.2315 ± 0.025 kg/m3	0.008603 ± 0.00084 mPa·s
348.15 K, 337.88 kPa	7.2315 ± 0.025 kg/m3	0.008607 ± 0.00084 mPa·s
348.15 K, 338.38 kPa	7.2445 ± 0.025 kg/m3	0.008599 ± 0.00084 mPa·s
348.15 K, 340.91 kPa	7.3031 ± 0.025 kg/m3	0.008599 ± 0.00084 mPa·s
348.15 K, 454.98 kPa	9.9811 ± 0.029 kg/m3	0.00861 ± 0.00084 mPa·s
348.15 K, 455.21 kPa	9.9833 ± 0.029 kg/m3	0.00861 ± 0.00084 mPa·s
348.15 K, 516.69 kPa	11.497 ± 0.032 kg/m3	0.008615 ± 0.00084 mPa·s
348.15 K, 516.76 kPa	11.497 ± 0.032 kg/m3	0.008618 ± 0.00084 mPa·s
373.13 K, 106.93 kPa	2.0348 ± 0.017 kg/m3	0.009211 ± 0.00085 mPa·s
373.13 K, 106.95 kPa	2.0363 ± 0.017 kg/m3	0.009213 ± 0.00085 mPa·s
373.13 K, 106.98 kPa	2.037 ± 0.017 kg/m3	0.00921 ± 0.00085 mPa·s
373.13 K, 157.77 kPa	3.0215 ± 0.018 kg/m3	0.009217 ± 0.00085 mPa·s
373.13 K, 916.45 kPa	20.053 ± 0.05 kg/m3 and 20.052 ± 0.05 kg/m3	0.009329 ± 0.00085 mPa·s and 0.009334 ± 0.00085 mPa·s
373.14 K, 57.69 kPa	1.0901 ± 0.015 kg/m3	0.009211 ± 0.00085 mPa·s
373.14 K, 57.72 kPa	1.0901 ± 0.015 kg/m3	0.009214 ± 0.00085 mPa·s
373.14 K, 57.76 kPa	1.0909 ± 0.015 kg/m3	0.009207 ± 0.00085 mPa·s
373.14 K, 157.75 kPa	3.0215 ± 0.018 kg/m3	0.00922 ± 0.00085 mPa·s
373.14 K, 210.39 kPa	4.0609 ± 0.019 kg/m3	0.009225 ± 0.00085 mPa·s
373.14 K, 273.38 kPa	5.3326 ± 0.021 kg/m3	0.00923 ± 0.00085 mPa·s
373.14 K, 274.72 kPa	5.3593 ± 0.021 kg/m3	0.009227 ± 0.00085 mPa·s
373.14 K, 493.67 kPa	9.9707 ± 0.029 kg/m3	0.009255 ± 0.00085 mPa·s
373.14 K, 493.81 kPa	9.9744 ± 0.029 kg/m3	0.009247 ± 0.00085 mPa·s
373.14 K, 572.54 kPa	11.724 ± 0.032 kg/m3	0.009263 ± 0.00085 mPa·s
373.14 K, 572.6 kPa	11.728 ± 0.032 kg/m3	0.009259 ± 0.00085 mPa·s
373.14 K, 669.81 kPa	13.955 ± 0.036 kg/m3	0.00928 ± 0.00085 mPa·s
373.14 K, 670 kPa	13.959 ± 0.037 kg/m3	0.009283 ± 0.00085 mPa·s
373.14 K, 751.04 kPa	15.893 ± 0.04 kg/m3	0.009293 ± 0.00085 mPa·s
373.14 K, 838.34 kPa	18.049 ± 0.044 kg/m3	0.009315 ± 0.00085 mPa·s
373.14 K, 1095.4 kPa	24.953 ± 0.06 kg/m3	0.009394 ± 0.00085 mPa·s
373.14 K, 1095.5 kPa	24.958 ± 0.06 kg/m3	0.00939 ± 0.00085 mPa·s
373.14 K, 1123 kPa	–	0.009464 ± 0.00085 mPa·s
373.14 K, 1262.7 kPa	30.019 ± 0.075 kg/m3	0.009463 ± 0.00085 mPa·s
373.14 K, 1263 kPa	30.031 ± 0.075 kg/m3	–
373.15 K, 210.37 kPa	4.0602 ± 0.019 kg/m3	0.009228 ± 0.00085 mPa·s
373.15 K, 344.33 kPa	6.7909 ± 0.024 kg/m3	0.00923 ± 0.00085 mPa·s
373.15 K, 344.35 kPa	6.7909 ± 0.024 kg/m3	0.009234 ± 0.00085 mPa·s
373.15 K, 392.71 kPa	7.8028 ± 0.025 kg/m3	0.009241 ± 0.00085 mPa·s
373.15 K, 439.63 kPa	8.8018 ± 0.027 kg/m3	0.009247 ± 0.00085 mPa·s
373.15 K, 441.23 kPa	8.8343 ± 0.027 kg/m3	0.009243 ± 0.00085 mPa·s
373.15 K, 750.55 kPa	15.881 ± 0.04 kg/m3	0.009298 ± 0.00085 mPa·s
373.15 K, 1366.4 kPa	33.46 ± 0.083 kg/m3	0.009514 ± 0.00085 mPa·s
373.15 K, 1367.1 kPa	33.484 ± 0.083 kg/m3	0.009518 ± 0.00085 mPa·s
423.11 K, 2532.5 kPa	59.203 ± 0.16 kg/m3	0.01157 ± 0.00086 mPa·s
423.12 K, 2534 kPa	59.251 ± 0.16 kg/m3	0.01158 ± 0.00086 mPa·s
423.13 K, 2535.6 kPa	59.303 ± 0.16 kg/m3	0.01157 ± 0.00086 mPa·s
423.16 K, 195.54 kPa	3.2893 ± 0.018 kg/m3	0.0104 ± 0.00085 mPa·s
423.16 K, 195.59 kPa	3.2893 ± 0.018 kg/m3	0.0104 ± 0.00085 mPa·s
423.17 K, 450.91 kPa	7.7808 ± 0.025 kg/m3	0.01045 ± 0.00086 mPa·s
423.17 K, 452.37 kPa	7.8076 ± 0.025 kg/m3	0.01045 ± 0.00086 mPa·s
423.17 K, 1490.2 kPa	29.071 ± 0.074 kg/m3	0.01078 ± 0.00086 mPa·s
423.17 K, 2272.3 kPa	50.31 ± 0.12 kg/m3	0.01129 ± 0.00086 mPa·s
423.19 K, 654.26 kPa	11.533 ± 0.032 kg/m3	0.0105 ± 0.00086 mPa·s
423.19 K, 1490 kPa	29.063 ± 0.074 kg/m3	0.01078 ± 0.00086 mPa·s
423.19 K, 3006 kPa	79.774 ± 0.26 kg/m3	0.01234 ± 0.00087 mPa·s
423.2 K, 653.48 kPa	11.519 ± 0.032 kg/m3	0.01049 ± 0.00086 mPa·s
423.2 K, 2781.1 kPa	69.059 ± 0.2 kg/m3	0.01191 ± 0.00087 mPa·s
423.2 K, 2781.6 kPa	69.058 ± 0.2 kg/m3	0.01191 ± 0.00087 mPa·s
423.2 K, 3005.8 kPa	79.773 ± 0.26 kg/m3	0.01233 ± 0.00087 mPa·s
423.2 K, 3170.2 kPa	89.28 ± 0.32 kg/m3	0.01273 ± 0.00087 mPa·s
423.24 K, 1016.1 kPa	18.65 ± 0.046 kg/m3	0.0106 ± 0.00086 mPa·s
423.25 K, 1015.9 kPa	18.648 ± 0.046 kg/m3	0.01059 ± 0.00086 mPa·s
423.26 K, 884.12 kPa	15.981 ± 0.04 kg/m3	0.01056 ± 0.00086 mPa·s
423.26 K, 884.38 kPa	15.987 ± 0.04 kg/m3	0.01055 ± 0.00086 mPa·s
423.28 K, 3171.4 kPa	89.266 ± 0.32 kg/m3	0.01273 ± 0.00087 mPa·s
423.47 K, 3280.9 kPa	96.663 ± 0.37 kg/m3	0.01307 ± 0.00088 mPa·s
423.48 K, 3280.8 kPa	96.642 ± 0.37 kg/m3	0.01306 ± 0.00088 mPa·s
424.21 K, 3176.8 kPa	88.401 ± 0.28 kg/m3	0.01272 ± 0.00087 mPa·s
424.21 K, 3177 kPa	88.415 ± 0.28 kg/m3	0.01273 ± 0.00087 mPa·s
428.08 K, 194.36 kPa	3.2322 ± 0.018 kg/m3	0.01054 ± 0.00086 mPa·s
428.09 K, 194.34 kPa	3.2308 ± 0.018 kg/m3	0.01053 ± 0.00086 mPa·s
428.09 K, 5149.9 kPa	360.26 ± 0.75 kg/m3	0.04425 ± 0.0011 mPa·s
428.09 K, 5150.2 kPa	360.25 ± 0.75 kg/m3	–
